From publication PMC4864329, “In vitro and in vivo efficacy, toxicity, bio-distribution and resistance selection of a novel antibacterial drug candidate” (Scientific Reports, 2016) come the findings set out here.

The test system of data set [1] is P. aeruginosa PAO1. Description: Lung infection model in neutropenic BALB/c mice, i.v. treatment, survival. It is filed as in vivo, Pseudomonas aeruginosa. To be noted: PAO1 1.5 × 10^3 CFU/mouse i.t., 5 mg/Kg i.v. twice, 1 and 16 h post-infection, 10 days, 10 mice/group. On the procedure:
Neutropenic mice were injected intra-tracheally (i.t.) with a lethal amount of P. aeruginosa PAO1 (1.5 × 10^3 CFU/mouse). They were then treated twice i.v. 1 and 16 hours post-infection with SET-M33L or SET-M33L-PEG 5 mg/Kg and monitored for survival for 10 days. We obtained 40% and 60% survival with SET-M33L and SET-M33L-PEG, respectively (Fig. 2A).
Animal procedures were approved by the Ethics Committees of the Azienda Ospedaliera Universitaria Senese on November 18, 2010, and of the Italian Ministry of Health on September 21, 2012. Eight-week-old (20 g) BALB/c female mice (Charles River) were used in all experiments. The animals were maintained and handled in accordance with the Guidelines for Accommodation and Care of Animals (European Convention for the Protection of Vertebrate Animals Used for Experimental and Other Scientific Purposes) and internal guidelines. For each experiment the animals were housed in groups of five mice per cage upon arrival and maintained with food and water ad libitum for 5 days before the beginning of treatment. All p values were calculated using GraphPad Prism 5.0 software.
We set up two lung infection models, one for i.v. and the other for intra-tracheal (i.t.) treatment. In the i.v. model, animals were made neutropenic as described in the sepsis model. […] Surviving mice were monitored for 10 days. […]

The test system of data set [2] is P. aeruginosa PAO1. Description: Sepsis model in neutropenic BALB/c mice, survival. It is filed as in vivo, Pseudomonas aeruginosa. As to conditions: PAO1 1.5 × 10^3 CFU/mouse i.p., 5 mg/Kg i.v. twice, 24 and 72 h post-infection, 12 days, 10 mice/group. On the procedure: Neutropenic mice were injected i.p. with a lethal amount of P. aeruginosa PAO1 (1.5 × 10^3 CFU/mouse). Then mice were treated twice i.v. with SET-M33L or SET-M33L-PEG (5 mg/Kg), 24 and 72 hours post-infection. Then animals were monitored for survival for 12 days. Survivals of 60% and 80% were obtained with SET-M33L or SET-M33L-PEG, respectively (Fig. 1). Note that this is a model of acute and rapidly progressive infection, since animals start to show signs of disease within 24 hours and controls died after 40–65 hours. Treatment with the peptides begun 24 h after onset of the infection. The relatively long interval between i.p. inoculation of bacteria and the start of i.v. treatment in animals with suppressed immune systems is a valid indication of the potency of the peptides in vivo.
Animal procedures were approved by the Ethics Committees of the Azienda Ospedaliera Universitaria Senese on November 18, 2010, and of the Italian Ministry of Health on September 21, 2012. Eight-week-old (20 g) BALB/c female mice (Charles River) were used in all experiments. […] All p values were calculated using GraphPad Prism 5.0 software.
In the Pseudomonas model of sepsis[35] animals were rendered neutropenic by i.p. administration of cyclophosphamide (Sigma-Aldrich C7397) at 150 mg/kg (300 μl of a 10 mg/ml solution) 4 days and 1 day before infection. […] Surviving mice were monitored for 12 days. […]

The next data set has as its system BALB/c mice. Description: Acute toxicity in mice, single i.v. dose. The format is in vivo, mouse. On the procedure:
As preliminary toxicity evaluation we first compared the acute toxicity of SET-M33L and SET-M33L-PEG with that of colistin. Animals (10 BALB/c mice/group) were injected i.v. with different amounts of SET-M33L, SET-M33L-PEG or colistin, in single dose, in the range 5–40 mg/kg (Fig. 4), and were monitored for 4 days after inoculation of the peptide. […] At 40 mg/Kg SET-M33L and SET-M33L-PEG produced similar toxicity profiles with strong signs of toxicity and 90–100% mortality after 96 hours. Colistin produced strong signs of toxicity already at 10 mg/Kg: 50% mortality immediately after inoculation and 70% mortality after 24 hours. Colistin induced sudden death in 100% of mice at 20 and 40 mg/Kg.
Mice were treated by a single i.v. administration of different amounts (40, 20, 10, 5 mg/Kg) of SET-M33L, SET-M33L-PEG or colistin sulfate (Sigma-Aldrich, C4461). Signs of toxicity were checked four times a day by visual inspection. A toxicity score was assigned for the following signs: wiry coat and poor motility = mild signs; very wiry coat, abundant lachrymation and poor motility even under stimulation = manifest signs. Animals were monitored for 4 days after inoculation of the peptide. Mice were weighed every day from arrival to the last day of the experiment. Moribund animals were killed humanely to avoid unnecessary distress.

The structures appear in SMILES notation. Positions of bridges follow the written chain, without caps; N, C: chain ends. Non-standard residues stand in square brackets, D forms with d. Residues, ends and D or L forms follow the SMILES beside them. Chains are numbered I, II in the order given. PEG4 = NCCOCCOCCOCCOCCC(=O)O

Regarding `CC[C@H](C)[C@H](NC(=O)[C@H](CCCCN)NC(=O)[C@@H](N)CCCCN)C(=O)N[C@@H](CCCNC(=N)N)C(=O)N[C@H](C(=O)N[C@@H](CCCNC(=N)N)C(=O)N[C@@H](CC(C)C)C(=O)N[C@@H](CO)C(=O)N[C@@H](C)C(=O)NCCCC[C@H](NC(=O)[C@H](C)NC(=O)[C@H](CO)NC(=O)[C@H](CC(C)C)NC(=O)[C@H](CCCNC(=N)N)NC(=O)[C@@H](NC(=O)[C@H](CCCNC(=N)N)NC(=O)[C@@H](NC(=O)[C@H](CCCCN)NC(=O)[C@@H](N)CCCCN)[C@@H](C)CC)C(C)C)C(=O)NCCCC[C@H](NC(=O)[C@H](CCCCNC(=O)[C@H](C)NC(=O)[C@H](CO)NC(=O)[C@H](CC(C)C)NC(=O)[C@H](CCCNC(=N)N)NC(=O)[C@@H](NC(=O)[C@H](CCCNC(=N)N)NC(=O)[C@@H](NC(=O)[C@H](CCCCN)NC(=O)[C@@H](N)CCCCN)[C@@H](C)CC)C(C)C)NC(=O)[C@H](C)NC(=O)[C@H](CO)NC(=O)[C@H](CC(C)C)NC(=O)[C@H](CCCNC(=N)N)NC(=O)[C@@H](NC(=O)[C@H](CCCNC(=N)N)NC(=O)[C@@H](NC(=O)[C@H](CCCCN)NC(=O)[C@@H](N)CCCCN)[C@@H](C)CC)C(C)C)C(=O)NCCOCCOCCOCCOCCC(N)=O)C(C)C` [SET-M33L-PEG] (I: H-KKIRVRLSAKK[PEG4]-NH2 / II: H-KKIRVRLSAK / III: H-KKIRVRLSA / IV: H-KKIRVRLSA; amide I:10-IV:C, I:11-II:C, II:10-III:C; N-terminus assumed), the survival in the data set with P. aeruginosa PAO1 [1] is 60%; in the data set with P. aeruginosa PAO1 [2] it was 80%. Moreover, the mortality with BALB/c mice (single i.v. dose 40 mg/Kg, after 96 hours) is 90–100%. Further, the “lethality and signs of toxicity” value in the data set on BALB/c mice (single i.v. dose up to 20 mg/kg, monitored 4 days, 10 BALB/c mice/group) was “not lethal and no signs of toxicity were observed”.
